Measured values reported in US7407940B2, “Antimicrobial hexapeptides” (Helix BioMedix Inc., priority 2005, dated 2008).
Values after ≈ are worked out from the molar mass of the structure shown. Where two headings read alike, the source gives them in different places. Where a SMILES comes first, the peptide text is derived from it. Where no end group is shown, it is not given here. [ ]: non-standard residue; d: D form. The star is where a group is joined. Oleoyl = CCCCCCCC/C=C\CCCCCCCC(=O)*; Myristoyl = CCCCCCCCCCCCCC(=O)*; Undecanoyl = CCCCCCCCCCC(=O)*; Nonanoyl = CCCCCCCCC(=O)*; Heptanoyl = CCCCCCC(=O)*; Octanoyl = CCCCCCCC(=O)*; Cap = not defined here

Experiments:
Candida albicans = type: cell-based
Method: (§1) MICs (minimal inhibitory concentrations) were determined for the hexapeptides of interest using a slightly modified version of the NCCLS (National Committee for Clinical Laboratory Standards) broth microdilution method as described previously (Steinberg et al., AAC 41: 1738, 1997). Briefly, antimicrobial agents were prepared as 10× concentrates in the most appropriate solvent. For the hexapeptide, 0.01% acetic acid containing 0.2% bovine serum albumin as a carrier protein was used. Inocula were prepared by resuspending colonies from a BAP (please spell out this term) in medium and adjusting the suspension to match that of a 0.5 McFarland standard. The suspension was diluted into fresh medium (as recommended by NCCLS for the organism) to give 2×10^5 to 7×10^5 CFU/ml for bacteria or 2×10^3 to 7×10^3 CFU/ml for Candida. After dispensing 100 μl aliquots of the microbial suspension into each well of a 96-well polypropylene microtiter plate, 11 μl of test compound was added. The MIC was defined as the lowest concentration of drug which prevented visible turbidity after 16 to 20 hours (bacteria) or 46 to 50 hours (Candida) at 35° C.

Pseudomonas aeruginosa = type: cell-based; parameters: MIC, lipid length SAR: unit not given here; conditions: for MIC, lipid length SAR: P.aeruginosa
Method: as §1

[1] = test system: Salmonella typhimurium 14028S; assay: MIC, broth microdilution, S. typhimurium; type: cell-based; parameters: unit not given here; conditions: for MIC, lipid length SAR: S.typhimurium; for Anti-microbial activity (MIC): S. typhimurium 14028S
Method: as §1

Escherichia coli UB1005 = assay: MIC, broth microdilution, E. coli; type: cell-based; parameters: unit not given here
Method: as §1

P. acnes = assay: Activity against extended panel of P. acnes; type: cell-based; parameters: unit not given here
Excerpt: A very promising application for short bioactive peptides is for dermatological indications such as acne.

MRSA = assay: Kill curve in 10% sheep serum-phosphate buffer against MRSA; type: cell-based, S. aureus; conditions: 10% serum / biological environments
[2] = T.W. Candida #184, azole resistant clinical isolate
[3] = T.W. Candida #185 (CDR1,2), azole resistant clinical isolate
[4] = T.W. Candida #186 (CDR1,2), azole resistant clinical isolate
[5] = T.W. Candida #187 (CDR1,2), azole resistant clinical isolate
[6] = T.W. Candida #192 (CDR1,2), azole resistant clinical isolate
[7] = T.W. Candida #193, azole resistant clinical isolate
[8] = T.W. Candida #194, azole resistant clinical isolate
[9] = T.W. Candida #195, azole resistant clinical isolate
[10] = T.W. Candida #196 (CDR1,2), azole resistant clinical isolate
[11] = T.W. Candida #197, azole resistant clinical isolate
[12] = T.W. Candida #198, azole resistant clinical isolate
[13] = T.W. Candida #199 (CDR1,2), azole resistant clinical isolate

CC(=O)N1CCN(c2ccc(OCC3COC(Cn4ccnc4)(c4ccc(Cl)cc4Cl)O3)cc2)CC1 (stereo not shown) [Ketoconazole, reference compound]
MIC (Candida albicans; [2]): 64 µg/mL (≈ 120 µM)
MIC (Candida albicans; [3]): 8 µg/mL (≈ 15.1 µM)
MIC (Candida albicans; [4]): 8 µg/mL (≈ 15.1 µM)
MIC (Candida albicans; [5]): 16 µg/mL (≈ 30.1 µM)
MIC (Candida albicans; [6]): 32 µg/mL (≈ 60.2 µM)
MIC (Candida albicans; [7]): 8 µg/mL (≈ 15.1 µM)
MIC (Candida albicans; [8]): 16 µg/mL (≈ 30.1 µM)
MIC (Candida albicans; [9]): 128 µg/mL (≈ 241 µM)
MIC (Candida albicans; [10]): 32 µg/mL (≈ 60.2 µM)
MIC (Candida albicans; [11]): > 256 µg/mL
MIC (Candida albicans; [12]): 1 µg/mL (≈ 1.88 µM)
MIC (Candida albicans; [13]): 16 µg/mL (≈ 30.1 µM)

Clc1ccc(COC(Cn2ccnc2)c2ccc(Cl)cc2Cl)c(Cl)c1 (stereo not shown) [Miconazole, reference compound]
MIC (Candida albicans; [2]): > 256 µg/mL
MIC (Candida albicans; [3]): > 256 µg/mL
MIC (Candida albicans; [4]): > 256 µg/mL
MIC (Candida albicans; [5]): > 256 µg/mL
MIC (Candida albicans; [6]): > 256 µg/mL
MIC (Candida albicans; [7]): > 256 µg/mL
MIC (Candida albicans; [8]): > 256 µg/mL
MIC (Candida albicans; [9]): > 256 µg/mL
MIC (Candida albicans; [10]): 128 µg/mL (≈ 308 µM)
MIC (Candida albicans; [11]): > 256 µg/mL
MIC (Candida albicans; [12]): 128 µg/mL (≈ 308 µM)
MIC (Candida albicans; [13]): > 256 µg/mL

CCCCCCCCC(=O)N[C@@H](CCCCN)C(=O)N[C@@H](Cc1ccccc1)C(=O)N[C@@H](CCCCN)C(=O)N[C@@H](Cc1c[nH]c2ccccc12)C(=O)N1CCC[C@H]1C(=O)N[C@@H](Cc1c[nH]c2ccccc12)C(N)=O [compound 70] (Nonanoyl-KFKWPW-NH2)
Minimal Inhibitory Concentrations (Mics) (Pseudomonas aeruginosa): 32-64 Mg/Ml

CCCCCCCCCCC(=O)N[C@@H](CCCCN)C(=O)N[C@@H](Cc1ccccc1)C(=O)N[C@@H](CCCCN)C(=O)N[C@@H](Cc1c[nH]c2ccccc12)C(=O)N1CCC[C@H]1C(=O)N[C@@H](Cc1c[nH]c2ccccc12)C(N)=O [compound 79] (Undecanoyl-KFKWPW-NH2)
Minimal Inhibitory Concentrations (Mics) (Candida albicans): 4-8 Mg/Ml
Minimal Inhibitory Concentrations (Mics) (Pseudomonas aeruginosa): 8-16 Mg/Ml

Cap-KFKWPW-NH2 (not fully specified; printed as Cap-KFKWPW-NH2; reading uncertain) [SEQ ID NO: 71]
MIC, lipid length SAR (Pseudomonas aeruginosa): >128
MIC, lipid length SAR [1]: 128

FAKLAK-NH2 [SEQ ID NO: 20]
Anti-microbial activity (MIC) (Escherichia coli UB1005): >128
Anti-microbial activity (MIC) [1]: >128

FALKKL-NH2 [SEQ ID NO: 14]
Anti-microbial activity (MIC) (Escherichia coli UB1005): >128
Anti-microbial activity (MIC) [1]: >128

FKFKPV-NH2 [SEQ ID NO: 12]
Anti-microbial activity (MIC) (Escherichia coli UB1005): >128
Anti-microbial activity (MIC) [1]: >128

FKLAPW-NH2 [SEQ ID NO: 16]
Anti-microbial activity (MIC) (Escherichia coli UB1005): >128
Anti-microbial activity (MIC) [1]: >128

FPWKFK-NH2 [SEQ ID NO: 34]
Anti-microbial activity (MIC) (Escherichia coli UB1005): >128
Anti-microbial activity (MIC) [1]: >128

FRHFRW-NH2 [SEQ ID NO: 18]
Anti-microbial activity (MIC) (Escherichia coli UB1005): >128
Anti-microbial activity (MIC) [1]: >128

H-RWRWPW-NH2 [compound 4]
Minimal Inhibitory Concentrations (Mics) (Candida albicans): 64-128 Mg/Ml

Hep-KFKWPW-NH2 (Heptanoyl-KFKWPW-NH2; SMILES CCCCCCC(=O)N[C@@H](CCCCN)C(=O)N[C@@H](Cc1ccccc1)C(=O)N[C@@H](CCCCN)C(=O)N[C@@H](Cc1c[nH]c2ccccc12)C(=O)N1CCC[C@H]1C(=O)N[C@@H](Cc1c[nH]c2ccccc12)C(N)=O) [SEQ ID NO: 69]
MIC, lipid length SAR (Pseudomonas aeruginosa): 128
MIC, lipid length SAR [1]: 128

KFFWPF-NH2 [SEQ ID NO: 36]
Anti-microbial activity (MIC) (Escherichia coli UB1005): >128
Anti-microbial activity (MIC) [1]: >128

KFKSFK-NH2 [SEQ ID NO: 21]
Anti-microbial activity (MIC) (Escherichia coli UB1005): >128
Anti-microbial activity (MIC) [1]: >128

KFVWPW-NH2 [SEQ ID NO: 32]
Anti-microbial activity (MIC) (Escherichia coli UB1005): >128
Anti-microbial activity (MIC) [1]: >128

KLAKLL-NH2 [SEQ ID NO: 27]
Anti-microbial activity (MIC) (Escherichia coli UB1005): >128
Anti-microbial activity (MIC) [1]: >128

KPVKFK-NH2 [SEQ ID NO: 31]
Anti-microbial activity (MIC) (Escherichia coli UB1005): >128
Anti-microbial activity (MIC) [1]: >128

KPVWPF-NH2 [SEQ ID NO: 35]
Anti-microbial activity (MIC) (Escherichia coli UB1005): >128
Anti-microbial activity (MIC) [1]: >128

KPVWPW-NH2 [SEQ ID NO: 30]
Anti-microbial activity (MIC) (Escherichia coli UB1005): >128
Anti-microbial activity (MIC) [1]: >128

KPWKFK-NH2 [SEQ ID NO: 29]
Anti-microbial activity (MIC) (Escherichia coli UB1005): >128
Anti-microbial activity (MIC) [1]: >128

KWKFKF-NH2 [SEQ ID NO: 23]
Anti-microbial activity (MIC) (Escherichia coli UB1005): >128
Anti-microbial activity (MIC) [1]: >128

KWKKLA-NH2 [SEQ ID NO: 22]
Anti-microbial activity (MIC) (Escherichia coli UB1005): >128
Anti-microbial activity (MIC) [1]: >128

KWKKPV-NH2 [SEQ ID NO: 17]
Anti-microbial activity (MIC) (Escherichia coli UB1005): >128
Anti-microbial activity (MIC) [1]: >128

KWKVFK-NH2 [SEQ ID NO: 24]
Anti-microbial activity (MIC) (Escherichia coli UB1005): >128
Anti-microbial activity (MIC) [1]: >128

LAKLAK-NH2 [SEQ ID NO: 28]
Anti-microbial activity (MIC) (Escherichia coli UB1005): >128
Anti-microbial activity (MIC) [1]: >128

LLKWPW-NH2 [SEQ ID NO: 33]
Anti-microbial activity (MIC) (Escherichia coli UB1005): >128
Anti-microbial activity (MIC) [1]: >128

Myr-KFKWPW-NH2 (Myristoyl-KFKWPW-NH2; SMILES CCCCCCCCCCCCCC(=O)N[C@@H](CCCCN)C(=O)N[C@@H](Cc1ccccc1)C(=O)N[C@@H](CCCCN)C(=O)N[C@@H](Cc1c[nH]c2ccccc12)C(=O)N1CCC[C@H]1C(=O)N[C@@H](Cc1c[nH]c2ccccc12)C(N)=O) [SEQ ID NO: 77]
MIC, lipid length SAR (Pseudomonas aeruginosa): 64-128
MIC, lipid length SAR [1]: >128

Non-KFKWPW-NH2 (Nonanoyl-KFKWPW-NH2; SMILES CCCCCCCCC(=O)N[C@@H](CCCCN)C(=O)N[C@@H](Cc1ccccc1)C(=O)N[C@@H](CCCCN)C(=O)N[C@@H](Cc1c[nH]c2ccccc12)C(=O)N1CCC[C@H]1C(=O)N[C@@H](Cc1c[nH]c2ccccc12)C(N)=O) [SEQ ID NO: 70]
MIC, lipid length SAR (Pseudomonas aeruginosa): 32-64
MIC, lipid length SAR [1]: 16

OIe-KFKWPW-NH2 (Oleoyl-KFKWPW-NH2; SMILES CCCCCCCC/C=C\CCCCCCCC(=O)N[C@@H](CCCCN)C(=O)N[C@@H](Cc1ccccc1)C(=O)N[C@@H](CCCCN)C(=O)N[C@@H](Cc1c[nH]c2ccccc12)C(=O)N1CCC[C@H]1C(=O)N[C@@H](Cc1c[nH]c2ccccc12)C(N)=O) [SEQ ID NO: 75]
MIC, lipid length SAR (Pseudomonas aeruginosa): >128
MIC, lipid length SAR [1]: >128

Oct-kfkwpw-HN2 (Octanoyl-[dK][dF][dK][dW][dP][dW]-NH2; SMILES CCCCCCCC(=O)N[C@H](CCCCN)C(=O)N[C@H](Cc1ccccc1)C(=O)N[C@H](CCCCN)C(=O)N[C@H](Cc1c[nH]c2ccccc12)C(=O)N1CCC[C@@H]1C(=O)N[C@H](Cc1c[nH]c2ccccc12)C(N)=O) [SEQ ID NO: 81]
Activity (MIC) against P. acnes (P. acnes; ATCC 6921): 4
Activity (MIC) against P. acnes (P. acnes; ATCC 6922): 8
Activity (MIC) against P. acnes (P. acnes; ATCC 6923): 8
Activity (MIC) against P. acnes (P. acnes; ATCC 11828): 8
Activity (MIC) against P. acnes (P. acnes; ATCC 12930): 2
Activity (MIC) against P. acnes (P. acnes; ATCC 25746): 0.25
Activity (MIC) against P. acnes (P. acnes; ATCC 29399): 8
Activity (MIC) against P. acnes (P. acnes; ATCC 33179): 16
Activity (MIC) against P. acnes (P. acnes; ATCC 49929): 0.125
Activity (MIC) against P. acnes (P. acnes; ATCC 51277): 8

RKTWPW-NH2 [SEQ ID NO: 15]
Anti-microbial activity (MIC) (Escherichia coli UB1005): >128
Anti-microbial activity (MIC) [1]: >128

SEQ ID NO:56 (Octanoyl-KWKWFW-NH2; SMILES CCCCCCCC(=O)N[C@@H](CCCCN)C(=O)N[C@@H](Cc1c[nH]c2ccccc12)C(=O)N[C@@H](CCCCN)C(=O)N[C@@H](Cc1c[nH]c2ccccc12)C(=O)N[C@@H](Cc1ccccc1)C(=O)N[C@@H](Cc1c[nH]c2ccccc12)C(N)=O)
ability to kill S. aureus in serum (in words) (MRSA): does not perform well in biological environments

VAKKWK-NH2 [SEQ ID NO: 25]
Anti-microbial activity (MIC) (Escherichia coli UB1005): >128
Anti-microbial activity (MIC) [1]: >128

VAKLAK-NH2 [SEQ ID NO: 19]
Anti-microbial activity (MIC) (Escherichia coli UB1005): >128
Anti-microbial activity (MIC) [1]: >128

VKVKPV-NH2 [SEQ ID NO: 13]
Anti-microbial activity (MIC) (Escherichia coli UB1005): >128
Anti-microbial activity (MIC) [1]: >128
